Data reported in patent US6046018A, “Highly sensitive method for assaying chiro-inositol and compositions for the assay” (priority 1997, dated 2000).
Values joined by “and” are separate entries in the source; they are usually repeats but may differ in a detail not shown here. Identical values can stand only once.

What was measured:
[1] = tested on: crude enzyme which catalyses chiroinositol, S. r. 301 origin; assay: Km value for D-chiroinositol; format: biochemical, Streptomyces roseogriseus 301
Method: (§1) Km value for D-chiroinositol is shown. Measurement is performed by changing substrate concentration in the above assay method.

[2] = tested on: dehydrogenase which catalyses chiroinositol (Bacillus sp. No. 3 origin); assay: Km value; format: biochemical
Method: 100 mM glycine-NaOH buffer (pH 11.0)
1 mM NAD (Oriental Yeast Corp., Japan)
10 mM D-chiroinosiol (Wako Pure Chemicals Inc., Japan)
The above reaction solution 1 ml in quartz cell is set in spectrophotometer which is (controlled at 37° C. After over 5 minutes incubation, aliquot diluted enzyme solution 20 μl is added and stirred. Absorption changes per minute at A340 are measured to obtain initial reaction rate and to calculate relative activity.
Km values are measured at various concentrations using 10 mM
D-chiroinositol and mM NAD.
Km for thio-NAD is measured by replacing NAD to thio-NAD.

[3] = tested on: dehydrogenase which catalyses chiroinositol (Bacillus sp. No. 3 origin); assay: Substrate specificity (Table 1); format: biochemical; settings: equal concentration of substrates; glycine-NaOH pH 9.8, thio-NAD/NADH cycling
Method: Substrate specificity is assayed by using following reaction solution at the equal concentration of substrates.
200 mM glycine-NaOH buffer (pH 9.8)
0.03 mM NADH (Oriental Yeast Corp., Japan)
100 U/ml dehydrogenase which catalyses chiroinosiol
2 Mm thio-NAD (Oriental Yeast Corp., Japan)
D-chiroinositol, galactose, fructose, mannitol, mannose; Japan, Wako Pure Chemicals Inc., myo-, epi-, scyllo-inositol U.S.A. SIGMA Corp.

[4] = tested on: crude enzyme which catalyses chiroinositol, A. r. 1215 origin; assay: Substrate specificity (Table 3); format: biochemical, Agrobacterium rhizogenes 1215; settings: coenzyme replaced by thio-NADP
Source text: (§2) In A. r. 1215 origin, the same assay method used in Bacillus sp. No. 3 is applied by replacing coenzyme to thio-NADP. In S. r. 301 origin, the reaction solution used for enzyme assay is used by replacing D-chiroinositol for various concentrations of substrates with adding constant concentration of enzyme solution to assay relative activities.

[5] = tested on: crude enzyme which catalyses chiroinositol, S. r. 301 origin; assay: Substrate specificity (Table 3); format: biochemical, Streptomyces roseogriseus 301; design: concentration or dose not given beside the values; settings: enzyme assay reaction solution, D-chiroinositol replaced by substrates
Source text: as §2

[6] = tested on: crude enzyme which catalyses chiroinositol, A. r. 1215 origin; assay: Km value for D-chiroinositol; format: biochemical, Agrobacterium rhizogenes 1215
Method: as §1

[7] = tested on: dehydrogenase which catalyses chiroinositol (Bacillus sp. No. 3 origin); assay: Initial rate of enzyme reaction with various coenzymes; format: biochemical; settings: 10 mM D-chiroinositol, 1 mM coenzyme; for Initial rate of enzyme reaction: 37° C., at optimum pH; for Optimum pH for the coenzyme: 100 mM Gly-NaOH buffer
Method: 100 mM Gly-NaOH buffer approx. pH 10 (at optimum pH)
10 mM D-chiroinositol (Wako Pure Chemicals Inc., Japan)
1 mM Coenzyme (NAD(P), thio-NAD(P); Oriental Yeast
Optimum pH are pH 11.0 for NAD, deamino NAD and thio-NAD, pH 10.5 for acetyl NAD, and pH 10.0 for aldehyde NAD and NADP.
The above reaction solution 1 ml in quartz cell is set in spectrophotometer which is controlled at 37° C. After over 5 minutes incubation, enzyme solution 140 U/ml (NAD and deamino NAD; 14 U/ml) 20 μl is added and stirred. Absorption changes per minute in specific wavelength for each reduced coenzyme is measured to obtain initial reaction rate. (For NAD and deamino NAD, measured value is increased number by ten for adjusting the amount of enzyme.)

[8] = tested on: crude enzyme which catalyses chiroinositol, A. r. 1215 origin; assay: Relative activities using various coenzymes (Table 2); format: biochemical, Agrobacterium rhizogenes 1215; settings: activity using NAD is set as 100%
Source text: (§3) The same as in the enzyme originated from Bacillus sp. No. 3.
(§4) The same as in the enzyme originated from Bacillus sp. No. 3. Relative activities using various coenzymes are shown in Table 2 (activity using NAD is set as 100%).

[9] = tested on: crude enzyme which catalyses chiroinositol, S. r. 301 origin; assay: as above; format: biochemical, Streptomyces roseogriseus 301; settings: activity using NAD is set as 100%
Source text: as §3, §4

[10] = tested on: dehydrogenase which catalyses chiroinositol (Bacillus sp. No. 3 origin); assay: Initial rate of enzyme reaction with various coenzymes; format: biochemical; settings: thio-NAD forward reaction, NADH reverse reaction
[11] = NAD and deamino NAD values increased by ten for enzyme amount

Compound | Relative activity [3] [%] | Relative activity, A.r.1215 origin [4] [%] | Relative activity, S.r.301 origin [5] [%] | Optimum pH for the coenzyme [7] [pH] | Relative activity, A.r.1215 origin [8] [%] | Relative activity, S.r.301 origin [9] [%] | also measured
O[C@H]1[C@H](O)[C@H](O)[C@@H](O)[C@H](O)[C@H]1O [D-chiroinositol] | 100 | 100 | 100 |  |  |  | Km [1]: 27.6 ± 1 mM; Km ([2]; NAD replaced by thio-NAD): 12.8 ± 0.5 mM; Km ([2]; coenzyme NAD): 5.2 ± 0.5 mM; Km [6]: 30.6 ± 1 mM
NC(=O)c1ccc[n+]([C@@H]2O[C@H](COP(=O)([O-])OP(=O)(O)OC[C@H]3O[C@@H](n4cnc5c(N)ncnc54)[C@H](O)[C@@H]3O)[C@@H](O)[C@H]2O)c1 [NAD, nicotinamide adenine dinucleotide] |  |  |  | 11.0 | 190 | 100 | Km ([2]; coenzyme NAD): 0.5 ± 0.1 mM; Initial rate of enzyme reaction [7, 11]: 13 Abs/min.
NC(=O)C1=CN([C@@H]2O[C@H](COP(=O)(O)OP(=O)(O)OC[C@H]3O[C@@H](n4cnc5c(N)ncnc54)[C@H](O)[C@@H]3O)[C@@H](O)[C@H]2O)C=CC1 [NADH] |  |  |  |  |  |  | Optimum pH of reaction in the cycling reaction [10]: ~10.0 pH
NC(=O)c1ccc[n+]([C@@H]2O[C@H](COP(=O)([O-])OP(=O)(O)OC[C@H]3O[C@@H](n4cnc5c(N)ncnc54)[C@H](OP(=O)(O)O)[C@@H]3O)[C@@H](O)[C@H]2O)c1 [NADP] |  |  |  | 10.0 | 1855 | 0 | Initial rate of enzyme reaction [7]: 80 mAbs/min.
CC(=O)c1ccc[n+]([C@@H]2O[C@H](COP(=O)([O-])OP(=O)(O)OC[C@H]3O[C@@H](n4cnc5c(N)ncnc54)[C@H](O)[C@@H]3O)[C@@H](O)[C@H]2O)c1 [acetyl NAD, acetylpyridine adenine dinucleotide] |  |  |  | 10.5 | 26 | 195 | Initial rate of enzyme reaction [7]: 260 mAbs/min.
Nc1ncnc2c1ncn2[C@@H]1O[C@H](COP(=O)(O)OP(=O)([O-])OC[C@H]2O[C@@H]([n+]3cccc(C=O)c3)[C@H](O)[C@@H]2O)[C@@H](O)[C@H]1O [aldehyde NAD, pyridine aldehyde adenine dinucleotide] |  |  |  | 10.0 | 15 | 20 | Initial rate of enzyme reaction [7]: 140 mAbs/min.
NC(=O)c1ccc[n+]([C@@H]2O[C@H](COP(=O)([O-])OP(=O)(O)OC[C@H]3O[C@@H](n4cnc5c(=O)[nH]cnc54)[C@H](O)[C@@H]3O)[C@@H](O)[C@H]2O)c1 [deamino NAD, nicotinamide hypoxanthine dinucleotide] |  |  |  | 11.0 | 44 | 110 | Initial rate of enzyme reaction [7, 11]: 12 Abs/min.
O[C@H]1[C@@H](O)[C@@H](O)[C@@H](O)[C@@H](O)[C@@H]1O [epi-inositol] | 0 | 0 | 4 |  |  |  | 
O=C(CO)[C@@H](O)[C@H](O)[C@H](O)CO [fructose] | 0 | 0 | 0 |  |  |  | 
OC[C@@H](O)[C@@H](O)[C@H](O)[C@H](O)CO [mannitol] | 0 | 0 | 0 |  |  |  | 
O[C@H]1[C@H](O)[C@@H](O)[C@H](O)[C@@H](O)[C@H]1O [myoinositol] | 9 | 33 | 0 |  |  |  | 
O[C@H]1[C@H](O)[C@@H](O)[C@H](O)[C@@H](O)[C@@H]1O [scylloinositol] | 0 | 0 | 0 |  |  |  | 
NC(=S)c1ccc[n+]([C@@H]2O[C@H](COP(=O)([O-])OP(=O)(O)OC[C@H]3O[C@@H](n4cnc5c(N)ncnc54)[C@H](O)[C@@H]3O)[C@@H](O)[C@H]2O)c1 [thio-NAD, thio-nicotinamide adenine dinucleotide] |  |  |  | 11.0 | 0 | 6 | Km ([2]; NAD replaced by thio-NAD): 0.9 mM and 0.87 mM; Initial rate of enzyme reaction [7, 11]: 2.5 Abs/min.; Optimum pH of reaction in the cycling reaction [10]: ~10.5 pH
NC(=S)c1ccc[n+]([C@@H]2O[C@H](COP(=O)([O-])OP(=O)(O)OC[C@H]3O[C@@H](n4cnc5c(N)ncnc54)[C@H](OP(=O)(O)O)[C@@H]3O)[C@@H](O)[C@H]2O)c1 [thio-NADP] |  |  |  |  | 269 | 0 | 
galactose | 0 |  |  |  |  |  | 
mannose | 0 | 10 | 0 |  |  |  | 
